According to PubChem BioAssay (NCI):
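Each compound was tested at five concentrations against cells in 96-well plates for 48 hours. The concentration for 50% growth inhibition is given as GI50. At the TGI there is no net growth.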

System: HT29 colon
Experiment: inhibition of tumour cell growth, NCI panel, 48 h

Row | SMILES | TGI [µM] | GI50 [µM]
1 | CCOC(=O)C(NC(=O)c1ccc(N=NN(C)C)cc1)C(C)C (centres undefined) | > 100 | –
2 | COc1cc(CCCOC2OC(COC3OCC(O)C(O)C3O)C(O)C(O)C2O)cc2cc(-c3ccc4c(c3)OCO4)oc12 (centres undefined) | > 175 | –
3 | c1ccc([P+](Cc2csnn2)(c2ccccc2)c2ccccc2)cc1 | > 100 | –
4 | COc1cc2nc(-c3c(F)cccc3F)n(Cc3c(F)cccc3F)c2cc1Cc1c(F)cccc1F | > 100 | –
5 | O=C(/C=C1\C[C@H]2C=Nc3ccccc3C(=O)N2C1)NCCCCCNC(=O)/C=C1\C[C@H]2C=Nc3ccccc3C(=O)N2C1 | 27.4 | –
6 | COc1cc2c(cc1O)CC[n+]1cc3c(OC)c(OC)ccc3cc1-2 | > 100 | –
7 | CC[P+](C#Cc1ccccc1)(c1ccccc1)c1ccccc1 | 6.98 | –
8 | CC(C)Cc1c(C#N)c(C#N)c(N)n1Cc1ccccc1 | > 100 | –
9 | Nc1nc(Nc2ccc(OCc3cccc(F)c3)cc2)c2c(n1)[nH]c1ccc(O)cc12 | 4.49 | 2.13
10 | CCC1(CC)C(=O)NC(=S)N=C1N | > 100 | –
11 | O=c1oc2ccccc2c2nc3ccccc3cc12 | > 100 | –
12 | CCCC[C@@H]1CCN2C[C@@H](O)[C@@H](O)[C@H]2[C@@H]1O | > 100 | –
13 | O=C(NN1C(=O)CSC1c1ccc(Cl)c(Cl)c1)c1ccncc1 (centres undefined) | > 100 | –
14 | Clc1cccc(C2ON=C(c3ccccc3)N2C23CC4CC(CC(C4)C2)C3)c1Cl (centres undefined) | > 10 | –
15 | CNc1ccc2c(c1)Cc1ccccc1-2 | > 100 | –
16 | CCN(CC(=O)O)CC(=O)O | > 100 | –
17 | CCOC(=O)c1csc(NC(=O)CCCC#N)n1 | > 100 | –
18 | O=c1cc(-c2ccccc2F)[nH]c2cc3c(cc12)OCO3 | 0.643 | –

Row | SMILES | TGI [µM] | GI50 [µM]
19 | CC(C)(C)c1ccc2c(c1)OCc1n[nH]c(n1)COc1cc(C(C)(C)C)ccc1OCCOCCO2 | 10.3 | –
20 | CCNC(=S)N/N=C/c1ccccn1 | > 100 | –
21 | COc1ccc(CCCCl)c(C2=NCCc3ccccc32)c1 | > 100 | –
22 | O=C1NN=C(c2c[nH]c3ccccc23)CC1NCc1ccccc1 (centres undefined) | > 100 | –
23 | O=C(CN=C(CN(c1ccccc1)c1ccccc1)Oc1c(Cl)cc(Cl)cc1Cl)n1cnc2ccccc21 | > 100 | –
24 | C=C1CC=CC(C)(C)C1C/C=C(\C)C(O)CBr (centres undefined) | > 100 | –
25 | CCOC(=O)C(C)NC(=O)N(C)C12CC3CC(CC(C3)C1)C2 (centres undefined) | > 500 | –
26 | O=C(O)c1cc2ccccc2c(S(=O)(=O)O)c1O | > 100 | –
27 | O=c1c2cc3c(=O)n(CCc4ccccc4CO)c(=O)c3cc2c(=O)n1CCc1ccccc1CO | > 100 | –
28 | CCc1cc(=O)n(/C(C)=C/c2ccccc2)n1C | > 100 | –
29 | Cc1cccc(NC(Nc2cccc(C)c2)=C(C(Cl)=C(Cl)Cl)[N+](=O)[O-])c1 | > 54 | –
30 | C/C(=N\Nc1nc2ccccc2s1)c1cccnn1 | > 100 | –
31 | COC(=O)C1=C(C(=O)OC)C2(C)CCC(=O)C1O2 (centres undefined) | > 10 | –
32 | FC(F)=C(c1ccc(-c2ccc(Cl)cc2)cc1)C(F)(F)F | 67.4 | –
33 | Nc1n[nH]c2ccccc12 | > 100 | –
34 | COC(=O)[C@H]1C=C[C@H](OC2OC(COC(C)=O)C(OC(C)=O)C(OC(C)=O)C2OC(C)=O)n2c(=O)n(-c3ccccc3)c(=O)n21 (some centres undefined) | 8.58 | –
35 | N/C(CSCCSC/C(N)=N/O)=N\O | > 100 | –

System: LXFL 529 NSCLC
Experiment: inhibition of tumour cell growth, NCI panel, 48 h

Row | SMILES | TGI [µM]
36 | CCOC(=O)C(NC(=O)c1ccc(N=NN(C)C)cc1)C(C)C (centres undefined) | > 100
37 | c1ccc([P+](Cc2csnn2)(c2ccccc2)c2ccccc2)cc1 | > 100
38 | CCC1(CC)C(=O)NC(=S)N=C1N | > 100
39 | O=C(NN1C(=O)CSC1c1ccc(Cl)c(Cl)c1)c1ccncc1 (centres undefined) | > 100
40 | O=c1cc(-c2ccccc2F)[nH]c2cc3c(cc12)OCO3 | 16.5
41 | O=c1c2cc3c(=O)n(CCc4ccccc4CO)c(=O)c3cc2c(=O)n1CCc1ccccc1CO | > 100

System: MOLT-4 leukemia
Experiment: inhibition of tumour cell growth, NCI panel, 48 h

Row | SMILES | TGI [µM] | GI50 [µM]
42 | CCOC(=O)C(NC(=O)c1ccc(N=NN(C)C)cc1)C(C)C (centres undefined) | > 100 | –
43 | COc1cc(CCCOC2OC(COC3OCC(O)C(O)C3O)C(O)C(O)C2O)cc2cc(-c3ccc4c(c3)OCO4)oc12 (centres undefined) | > 175 | –
44 | c1ccc([P+](Cc2csnn2)(c2ccccc2)c2ccccc2)cc1 | > 100 | –
45 | COc1cc2nc(-c3c(F)cccc3F)n(Cc3c(F)cccc3F)c2cc1Cc1c(F)cccc1F | > 100 | –
46 | O=C(/C=C1\C[C@H]2C=Nc3ccccc3C(=O)N2C1)NCCCCCNC(=O)/C=C1\C[C@H]2C=Nc3ccccc3C(=O)N2C1 | > 100 | –
47 | COc1cc2c(cc1O)CC[n+]1cc3c(OC)c(OC)ccc3cc1-2 | > 100 | –
48 | CC[P+](C#Cc1ccccc1)(c1ccccc1)c1ccccc1 | 3.93 | –
49 | CC(C)Cc1c(C#N)c(C#N)c(N)n1Cc1ccccc1 | > 100 | –
50 | Nc1nc(Nc2ccc(OCc3cccc(F)c3)cc2)c2c(n1)[nH]c1ccc(O)cc12 | 8.34 | 2.77
51 | CCC1(CC)C(=O)NC(=S)N=C1N | > 100 | –
52 | O=c1oc2ccccc2c2nc3ccccc3cc12 | > 100 | –
53 | CCCC[C@@H]1CCN2C[C@@H](O)[C@@H](O)[C@H]2[C@@H]1O | > 100 | –
54 | O=C(NN1C(=O)CSC1c1ccc(Cl)c(Cl)c1)c1ccncc1 (centres undefined) | > 100 | –
55 | Clc1cccc(C2ON=C(c3ccccc3)N2C23CC4CC(CC(C4)C2)C3)c1Cl (centres undefined) | > 10 | –
56 | CNc1ccc2c(c1)Cc1ccccc1-2 | 98.7 | –
57 | CCN(CC(=O)O)CC(=O)O | > 100 | –
58 | CCOC(=O)c1csc(NC(=O)CCCC#N)n1 | > 100 | –
59 | O=c1cc(-c2ccccc2F)[nH]c2cc3c(cc12)OCO3 | > 18.3 | –
60 | CC(C)(C)c1ccc2c(c1)OCc1n[nH]c(n1)COc1cc(C(C)(C)C)ccc1OCCOCCO2 | 17.6 | –
61 | CCNC(=S)N/N=C/c1ccccn1 | > 100 | –
62 | COc1ccc(CCCCl)c(C2=NCCc3ccccc32)c1 | > 100 | –
63 | O=C1NN=C(c2c[nH]c3ccccc23)CC1NCc1ccccc1 (centres undefined) | > 100 | –
64 | O=C(CN=C(CN(c1ccccc1)c1ccccc1)Oc1c(Cl)cc(Cl)cc1Cl)n1cnc2ccccc21 | > 100 | –
65 | C=C1CC=CC(C)(C)C1C/C=C(\C)C(O)CBr (centres undefined) | > 100 | –
66 | CCOC(=O)C(C)NC(=O)N(C)C12CC3CC(CC(C3)C1)C2 (centres undefined) | 420 | –
67 | O=C(O)c1cc2ccccc2c(S(=O)(=O)O)c1O | > 100 | –
